Literature values as cited in publication PMC2096531 (Purinergic Signalling, 2005).
pEC50: −log10 of the molar value.

Target: human A2B receptors
Settings: read-out: EC50 A2B, agonist

SMILES: CCNC(=O)[C@H]1O[C@@H](n2cnc3c(N)nc(C#CC(O)c4ccccc4)nc32)[C@H](O)[C@@H]1O (stereo partly drawn) [(R,S)-PHPNECA, (R,S)-2-phenyhydroxypropynyl-N-ethylcarboxamidoadenosine]
- pEC50: 5.96
